Measured values taken from BindingDB's records for doi:10.1021/jm00144a035 (1982).

Target: Choline O-acetyltransferase (squid)
Test: Inhibition of choline acetyltransferase isolated from squid head ganglia

Ki [nM] | SMILES
1800 | Nc1c(S(=O)(=O)O)cc(Nc2ccc(Nc3nc(Nc4ccc(S(=O)(=O)O)cc4)nc(=O)[nH]3)c(S(=O)(=O)O)c2)c2c1C(=O)c1ccccc1C2=O [1-Amino-4-{4-[4-hydroxy-6-(4-sulfo-phenylamino)-[1,3,5]triazin-2-ylamino]-3-sulfo-phenylamino}-9,10-dioxo-9,10-dihydro-anthracene-2-sulfonic acid]
2300 | CSSCCNC(=O)CCNC(=O)C(O)C(C)(C)COP(=O)(O)OP(=O)(O)OC[C@H]1O[C@@H](n2cnc3c(N)ncnc32)[C@H](O)[C@@H]1OP(=O)(O)O (some centres not stated) [Methyldisulfanyl analogue of coenzyme A]
